pIC50: −log10 of the molar value.
Experiments:
HT-29 = test: MTT cytotoxicity assay, HT-29; format: cell-based; details: HT-29, 72 h, human colorectal cancer cells
Description: (§1) The cytotoxicity of these compounds was tested on five cells lines by the standard MTT assay. The human cancer cells lines (HepG2, HT-29, Hela, BGC-823) and MDCK cells were provided by the Chinese Academy of Medical Sciences Peking Union Medical College. The tumor cells were cultured in RPMI 1640 medium supplemented with 10% (v/v) fetal bovine serum and 1% (v/v) penicillin-streptomycin (Thermo Technologies, New York, NY, USA) at 37 °C in a humidified atmosphere with 5% CO2. The growing tumor cells at a density 3 × 10^3 cells/mL were exposed to various concentrations of the tested drugs and incubated in a 96-well microtiter plate for 72 h (37 °C, 5% CO2). After MTT solution (20 μL, 5 mg/mL) was added to each well, the plate was incubated for a further 4 h. Then the media was removed. Formazan crystals were dissolved with DMSO (150 μL). After mixing well, the absorbance was quantified at 490 nm with a BIORAD 550 spectrophotometer (Bio-rad Life Science Development Ltd., Beijing, China). Wells containing no drugs were used to be blanks. The IC50 values were defined as the concentration of compounds that produced a 50% reduction of surviving cells and calculated using the Logit-method. Tumor cell growth inhibitory rate was calculated in the following Equation (1): % inhibition = (1 − Sample group OD/Control group OD) × 100%(1)

MDCK cells = test: MTT toxicity (nephrotoxicity) evaluation, MDCK; format: cell-based; details: Canis lupus familiaris, MDCK, 72 h, Madin-Darby canine kidney cells
Description: as §1

Hela = test: MTT cytotoxicity assay, Hela; format: cell-based, human; details: Homo sapiens, 72 h, cervical cancer cells
Description: as §1

BGC-823 = test: MTT cytotoxicity assay, BGC-823; format: cell-based; details: BGC-823, 72 h, human gastric cancer cells
Description: as §1

HepG2 = test: MTT cytotoxicity assay, HepG2; format: cell-based; details: HepG2, 72 h, human hepatoma cells
Description: as §1

[1] = tested on: HepG2, HT-29, Hela and BGC-823; test: MTT cytotoxicity, summary statements over the cell lines; format: cell-based, human; details: Homo sapiens, HepG2, HT-29, Hela and BGC-823, MTT; read-out: IC50, cytotoxicity on all four cancer cell lines
Description: as §1

Row | SMILES | melting point [°C] | IC50 (HT-29) [µM] | IC50 (MDCK cells) [µM] | IC50 (Hela) [µM] | IC50 (BGC-823) [µM] | IC50 (HepG2) [µM] | pIC50 [1]
1 | Cc1nc(C)c(COC(=O)[C@]23CCC(C)(C)CC2C2=CCC4[C@@]5(C)CC[C@H](OC(=O)[C@@H](N)Cc6c[nH]c7ccccc67)C(C)(C)C5CC[C@@]4(C)[C@]2(C)CC3)nc1C (stereo partly drawn) [Compound 6k, 3β-L-Tryptophan ester olean-12-en-28-oic acid-3,5,6-trimethylpyrazin-2-methyl ester] | 206.9 to 207.7 | > 25 | 10.8 | > 25 | 10 | 11.4 | –
2 | Cc1nc(C)c(COC(=O)[C@]23CCC(C)(C)CC2C2=CCC4[C@@]5(C)CC[C@H](OC(=O)[C@@H](N)CO)C(C)(C)C5CC[C@@]4(C)[C@]2(C)CC3)nc1C (stereo partly drawn) [Compound 6l, 3β-L-Serine ester olean-12-en-28-oic acid-3,5,6-trimethylpyrazin-2-methyl ester] | 107.1 to 108.5 | 4.83 | 3.12 | 5.22 | 4.9 | 4.78 | > 5.10
3 | Cc1nc(C)c(COC(=O)[C@]23CCC(C)(C)CC2C2=CCC4[C@@]5(C)CC[C@H](OC(=O)[C@@H](N)CC(C)C)C(C)(C)C5CC[C@@]4(C)[C@]2(C)CC3)nc1C (stereo partly drawn) [Compound 6d, 3β-L-Leucine ester olean-12-en-28-oic acid-3,5,6-trimethylpyrazin-2-methyl ester] | 89.6 to 91.6 | > 25 | > 25 | > 25 | > 25 | > 25 | –
4 | Cc1nc(C)c(COC(=O)[C@]23CCC(C)(C)CC2C2=CCC4[C@@]5(C)CC[C@H](OC(=O)[C@@H](N)Cc6ccccc6)C(C)(C)C5CC[C@@]4(C)[C@]2(C)CC3)nc1C (stereo partly drawn) [Compound 6h, 3β-L-Phenylalanine ester olean-12-en-28-oic acid-3,5,6-trimethylpyrazin-2-methyl ester] | 82.4 to 83.8 | 9.5 | 8.12 | > 25 | > 25 | 8.22 | –
5 | Cc1nc(C)c(COC(=O)[C@]23CCC(C)(C)CC2C2=CCC4[C@@]5(C)CC[C@H](OC(=O)[C@H](C)N)C(C)(C)C5CC[C@@]4(C)[C@]2(C)CC3)nc1C (stereo partly drawn) [Compound 6b, 3β-L-Alanine ester olean-12-en-28-oic acid-3,5,6-trimethylpyrazin-2-methyl ester] | 89.7 to 92.1 | 4.77 | 5.12 | 7.69 | 4.47 | 2.32 | > 5.10
6 | CNCC(=O)O[C@H]1CC[C@@]2(C)C(CC[C@]3(C)C2CC=C2C4CC(C)(C)CC[C@]4(C(=O)OCc4nc(C)c(C)nc4C)CC[C@]23C)C1(C)C (stereo partly drawn) [Compound 6i, 3β-L-Sarcosine ester olean-12-en-28-oic acid-3,5,6-trimethylpyrazin-2-methyl ester] | 81.9 to 82.5 | 16.9 | 15.8 | 12.6 | 16 | 10.2 | –

From article PMC6271079, “Amino Acid Derivatives of Ligustrazine-Oleanolic Acid as New Cytotoxic Agents” (Molecules, 2014)
